Reference: US8663668B2, “Preservative for medical devices” (Fresenius Medical Care Deutschland GmbH, priority 2004, dated 2014)

Assay: antimicrobial effectiveness test (USP 27), disinfectant/preservative effect
Format: cell-based
Conditions: additive alone
Excerpt: Within the context of the present invention, preferably poly(hexamethylene)biguanide having a molecular weight of 2900 to 15,000 (PHMB) is used as the biguanide compound. An especially preferred disinfection solution contains PHMB in a concentration of 0.01% to 0.5% by weight, where concentrations of 0.02% to 0.06% by weight are especially advantageous. A neutral buffer containing phosphate, and preferably also containing the following substances is used as the medium: sodium citrate dihydrate, sodium acetate trihydrate, sodium chloride, sodium monohydrogen phosphate, potassium dihydrogen phosphate. Such a solution effectively disinfects and preserves the aforementioned medical devices and is in compliance with the requirements of the “antimicrobial effectiveness tests” described in USP 27 (United States Pharmacopoeia).
An adsorber column of the type IMMUNOSORBA (Fresenius Adsorber Technology GmbH) is used to remove antibodies from blood plasma and binds the antibodies via protein A of Staphylococcus aureus. This adsorber column is filled with a solution according to Example 1.

Which disinfectant effect does the source give for N[C@@H](Cc1c[nH]c2ccccc12)C(=O)O [Tryptophan, tryptophan] here?
Its disinfectant effect is “does not have any disinfectant effect”.
